# Patent US8728797B2, “Yeast membrane protein expression system and its application in drug screening” (priority 2001, dated 2014)
# Legend:
# S. cerevisiae AD1-8u^− = assay: MIC microdilution test, parental strain; assay type: cell-based; conditions: Saccharomyces cerevisiae; AD1-8u^− parental strain; 30° C., 48 h, pH 7.0
# Method: (§1) The MICs of antifungal agents for S. cerevisiae cells were determined by a microdilution test based on the macrodilution reference method of the National Committee for Clinical Laboratory Standards. Cells (10 μl cell suspension, 2×10^5 cells/ml) were inoculated into 90 μl CSM-URA, buffered with 10 mM 2-(N-morpholino)ethanesulfonic acid (MES) and 18 mM N-2-hydroxyethylpiperazine-N′-2-ethanesulfonic acid (HEPES), pH 7.0 and containing 0.67% (w/v) yeast nitrogen base (YNB) in microtitre plate wells. For the uracil-requiring strain AD1-8u^− the medium was supplemented with 0.02% (w/v) uridine. The wells contained, in […], doubling dilutions of antifungal agents (final concentrations: fluconazole, 40-0.078 μg/ml; itraconazole and ketoconazole, 8-0.016 μg/ml). The microtitre plates were incubated at 30° C. for 48 h with shaking and then the growth of cells in individual wells (OD590) was measured with a microplate reader (EL 340, Bio-Tek, Winooski, Vt.). The MIC80 was the lowest concentration of drug that inhibited growth yield by at least 80% compared to a no-drug control.
# [1] = tested on: S. cerevisiae AD1002 expressing C. albicans Cdr1p; assay: MIC microdilution test, strain expressing Cdr1p; assay type: cell-based
# Method: as §1
# S. cerevisiae AD1-8/CDR2 = assay: MIC microdilution test, strain expressing Cdr2p; assay type: cell-based; conditions: Saccharomyces cerevisiae, AD18/CDR2, 30° C.
# Method: as §1
# [2] = tested on: S. cerevisiae AD1-8 sec6-4; assay: MIC microdilution test, sec6-4 host; assay type: cell-based; conditions: Saccharomyces cerevisiae, AD18SEC64, 30° C.
# Method: as §1
# [3] = tested on: S. cerevisiae AD1-8 sec6-4/CDR1; assay: MIC microdilution test, sec6-4 host with CDR1; assay type: cell-based; conditions: Saccharomyces cerevisiae, 30° C.
# Method: as §1
# AD-PDR5 (Pdr5p) = assay: MIC in liquid microdilution assay, AD-PDR5; assay type: cell-based, S. cerevisiae; conditions: Saccharomyces cerevisiae
# Method: as §1
# AD-ERG11 (Erg11p) [4] = assay: MIC in liquid microdilution assay, AD-ERG11; assay type: cell-based, S. cerevisiae; conditions: Saccharomyces cerevisiae
# Method: as §1
# AD-pABC3 = assay: MIC in liquid microdilution assay, AD-pABC3 control; assay type: cell-based, S. cerevisiae; conditions: Saccharomyces cerevisiae; AD-pABC3 negative control strain
# Method: as §1
# [5] = tested on: S. cerevisiae AD1-8u^− hyper-expressing CDR1-1; assay: MIC, CDR1 allele 1 hyper-expressed; assay type: cell-based; conditions: Saccharomyces cerevisiae; hyper-expression of CDR1-1 allele
# Method: as §1
# [6] = tested on: SfiI-containing construct expressing Pdr5p; assay: MIC, SfiI-containing Pdr5p construct; assay type: cell-based, S. cerevisiae; conditions: low Pdr5p expression
# Method: as §1
# [7] = tested on: initial construct in AD1-8u^− with barely detectable Cdr1p; assay: MIC, initial defective Cdr1p construct; assay type: cell-based, S. cerevisiae; conditions: Saccharomyces cerevisiae
# Method: as §1
# AD-BEN^R (Ben^Rp) = assay: Disk diffusion assay, AD-BEN^R; assay type: cell-based, S. cerevisiae; conditions: AD-pABC as negative control, 30° C., 48 h
# Method: (§2) The cells were spread on CSM-agar plates and exposed to the drugs or chemicals applied to filter disks and incubated at 30° C. for 48 h. The amounts of individual drugs are given in the Materials and Methods section of Example 3. Rhodamine 6G and rhodamine 123 were dissolved in ethanol and the other antifungals were dissolved in DMSO.
# (§3) Drug susceptibility was measured using disk assays on CSM-URA plates (containing 1.5% w/v agar). Yeast cells (200 μl ml of 5×10^6 cells/ml) were spread on the plates. 10 μl of drug solution or solvent control were spotted onto sterile Whatman paper disks on the pre-spread plates. The following amounts (nmoles) of drugs were applied to individual disks: fluconazole, 633 (Pfizer Ltd., Sandwich, Kent, United Kingdom); itraconazole, 0.23 (Janssen); miconazole, 0.42 (Janssen); cycloheximide, 0.71 (Sigma); rhodamine 6G, 100 (Sigma, Penrose, Auckland, N. Z.); rhodamine 123, 125 (Sigma); cerulenin 4.5 (Sigma); 5-flucytosine 100 (Sigma); amphotericin B, 97 (E. R. Squibb & Sons, Princeton, N.J.); nystatin 65 (Sigma). Agar plates were incubated at 30° C. for 48 h or until clear growth inhibition zones were visible.
# AD-ERG11 (Erg11p) [8] = assay: Disk diffusion assay, AD-ERG11; assay type: cell-based, S. cerevisiae; conditions: AD-pABC as negative control, 30° C., 48 h
# Method: as §2, §3
# [9] = molecular target: S. cerevisiae plasma membrane H^+-ATPase (Pma1p) (Saccharomyces cerevisiae, UniProt P05030); assay: Plasma membrane H+-ATPase inhibition; assay type: biochemical; conditions: read-out: 150 for plasma membrane H^+-ATPase
# S. cerevisiae plasma membrane H^+-ATPase (Pma1p), sequence (P05030 whole entry): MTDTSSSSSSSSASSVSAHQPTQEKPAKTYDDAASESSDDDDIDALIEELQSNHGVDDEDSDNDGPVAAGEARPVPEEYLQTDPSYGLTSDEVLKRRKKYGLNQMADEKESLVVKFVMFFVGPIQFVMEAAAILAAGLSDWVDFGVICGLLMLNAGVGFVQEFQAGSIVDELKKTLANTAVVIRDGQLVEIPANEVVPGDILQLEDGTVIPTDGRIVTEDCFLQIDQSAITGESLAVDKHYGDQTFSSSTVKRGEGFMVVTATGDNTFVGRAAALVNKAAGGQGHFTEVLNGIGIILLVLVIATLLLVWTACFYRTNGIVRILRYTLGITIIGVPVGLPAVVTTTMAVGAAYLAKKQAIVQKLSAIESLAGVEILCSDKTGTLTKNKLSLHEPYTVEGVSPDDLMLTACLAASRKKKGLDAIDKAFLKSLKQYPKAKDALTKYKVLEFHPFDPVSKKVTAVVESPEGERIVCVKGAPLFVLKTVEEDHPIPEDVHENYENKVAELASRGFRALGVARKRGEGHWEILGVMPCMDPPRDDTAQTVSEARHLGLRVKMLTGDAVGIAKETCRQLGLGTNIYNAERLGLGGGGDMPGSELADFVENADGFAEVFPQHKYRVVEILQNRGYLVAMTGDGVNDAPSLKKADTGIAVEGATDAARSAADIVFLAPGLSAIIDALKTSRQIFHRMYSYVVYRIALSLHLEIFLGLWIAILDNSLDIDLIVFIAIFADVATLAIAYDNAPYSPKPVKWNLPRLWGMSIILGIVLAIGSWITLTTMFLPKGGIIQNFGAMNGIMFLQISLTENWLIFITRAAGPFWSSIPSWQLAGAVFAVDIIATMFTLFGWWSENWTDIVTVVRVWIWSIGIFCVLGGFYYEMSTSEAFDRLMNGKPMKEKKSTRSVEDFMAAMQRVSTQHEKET
# [10] = tested on: AD124567 (Pdr5p-overexpressing); assay: Disk drug susceptibility assay of chemosensitisation to fluconazole; assay type: cell-based, S. cerevisiae; conditions: 120 μg/ml fluconazole, 47 nanomole peptide on disk
# Method: (A) Checkerboard drug susceptibility assay of AD124567 in the presence of the indicated concentrations of fluconazole and KN20. (B) Disk drug susceptibility assay of AD124567. This assay was conducted, as described in Materials and methods for example 4, in the absence or presence of fluconazole (120 μg/ml), and in the presence of (1) KN0 (47 nanomole), (2) KN20 (47 nanomole) or (0) control amounts of DMSO applied to disks
# Drug susceptibility was measured using disk assays on CSM-URA plates (containing 1.5% w/v agar). Plates were seeded with yeast cells suspended in top agar (5 ml, 10^5 cells/ml). For the uracil-dependent parental strain, agar was supplemented with 0.02% uridine. Five microliters of drug solution or solvent control were spotted onto sterile Whatman paper disks on the top agar. […]
Compound,MIC80 (S. cerevisiae AD1-8u^−) [µg/mL],"MIC80 ([1]; AD1002 expressing Cdr1p, 30° C., 48 h, pH 7.0) [µg/mL]",fold increase in MIC ([1]; AD1002 relative to parental AD1-8u^−) [fold],MIC80 (S. cerevisiae AD1-8/CDR2) [µg/mL],MIC80 [2] [µg/mL],MIC80 [3] [µg/mL],MIC (AD-PDR5 (Pdr5p)) [µg/mL],MIC (AD-ERG11 (Erg11p) [4]) [µg/mL],MIC (AD-pABC3) [µg/mL],MIC [5] [µg/mL],MIC [6] [mu.g/ml],MIC [7] [µg/mL],resistance/sensitivity in disk diffusion assay (AD-BEN^R (Ben^Rp)),resistance/sensitivity in disk diffusion assay (AD-ERG11 (Erg11p) [8]),IC50 [9] [µM],chemosensitisation to fluconazole in disk assay [10]
OC(Cn1cncn1)(Cn1cncn1)c1ccc(F)cc1F [fluconazole],0.625,30,> 45,64,0.5,80,400,2,0.5,400,< 40,20,resistant,modest resistance,,
"D-octapeptide NH2-Asn-Trp-Trp-Lys-Val-Arg-Arg-Arg-CONH2 with a single 4-methoxy-2,3,6-trimethylbenzenesulphonyl (Mtr) substituent on one tryptophan sidechain; Pdr5p inhibitor [KN20]",,,,,,,,,,,,,,,10,chemosensitisation
